# From paper PMC11995216, “End-to-End Backbone Cyclization Enhances Passive Permeability of bRo5 Oligomeric Depsipeptides with Nonlinear Size Dependence” (ACS Medicinal Chemistry Letters, 2025)
# “And” between values parts separate entries of the source, which are not always exact repeats. Identical values can stand only once. Like-named read-outs stand apart in the source and are kept apart here.
# What was measured:
# PAMPA [1] = test system: PAMPA
# PAMPA [2] = conditions: UV detection
# PAMPA [3] = test system: PAMPA; remark: listed apart in the source
# PAMPA [4] = test system: PAMPA; remark: listed apart in the source
# PAMPA [5] = test system: PAMPA; remark: listed apart in the source
# PAMPA [6] = conditions: calculated using Supplement Equation 1, UV detection
# [7] = PAMPA, permeability assay across an artificial membrane; conditions: for Acceptor Concentration, Ave: after incubation
# [8] = Acceptor Concentration (uM) – ELSD Detection / [row 1]
# [9] = Acceptor Concentration (uM) – ELSD Detection / [row 2]
# [10] = Acceptor Concentration (uM) – ELSD Detection / [row 3]
# [11] = Acceptor Concentration (uM) – ELSD Detection / [row 4]
# [12] = Acceptor Concentration (uM) – ELSD Detection / [row 5]
# [13] = Acceptor Concentration (uM) – ELSD Detection / [row 6]
# [14] = Acceptor Concentration (uM) – ELSD Detection / [row 7]
# [15] = Acceptor Concentration (uM) – ELSD Detection / [row 8]
# [16] = Acceptor Concentration (uM) – ELSD Detection / [row 9]
# [17] = Acceptor Concentration (uM) – ELSD Detection / [row 10]
# [18] = Acceptor Concentration (uM) – UV Detection / [row 1]
# [19] = Acceptor Concentration (uM) – UV Detection / [row 2]
# [20] = Acceptor Concentration (uM) – UV Detection / [row 4]
# [21] = Acceptor Concentration (uM) – UV Detection / [row 5]
# [22] = Acceptor Concentration (uM) – UV Detection / [row 6]
# [23] = Acceptor Concentration (uM) – UV Detection / [row 7]
# [24] = Acceptor Concentration (uM) – UV Detection / [row 8]
# [25] = Acceptor Concentration (uM) – UV Detection / [row 9]
# [26] = Acceptor Concentration (uM) – UV Detection / [row 10]
# [27] = Papp (x 10^-6 cm/s) – ELSD Detection / [row 2], ELSD Detection
# [28] = Papp (x 10^-6 cm/s) – ELSD Detection / [row 3], ELSD Detection
# [29] = Papp (x 10^-6 cm/s) – ELSD Detection / [row 4], ELSD Detection
# [30] = Papp (x 10^-6 cm/s) – ELSD Detection / [row 5], ELSD Detection
# [31] = Papp (x 10^-6 cm/s) – ELSD Detection / [row 6], ELSD Detection
# [32] = Papp (x 10^-6 cm/s) – ELSD Detection / [row 7], ELSD Detection
# [33] = Papp (x 10^-6 cm/s) – ELSD Detection / [row 8], ELSD Detection
# [34] = Papp (x 10^-6 cm/s) – ELSD Detection / [row 9], ELSD Detection
# [35] = Papp (x 10^-6 cm/s) – ELSD Detection / [row 10], ELSD Detection
# [36] = Papp (x 10^-6 cm/s) – UV Detection / [row 1], UV Detection
# [37] = Papp (x 10^-6 cm/s) – UV Detection / [row 2], UV Detection
# [38] = Papp (x 10^-6 cm/s) – UV Detection / [row 3], UV Detection
# [39] = Papp (x 10^-6 cm/s) – UV Detection / [row 4], UV Detection
# [40] = Papp (x 10^-6 cm/s) – UV Detection / [row 6], UV Detection
# [41] = Papp (x 10^-6 cm/s) – UV Detection / [row 7], UV Detection
# [42] = Papp (x 10^-6 cm/s) – UV Detection / [row 8], UV Detection
# [43] = Papp (x 10^-6 cm/s) – UV Detection / [row 9], UV Detection
# [44] = Papp (x 10^-6 cm/s) – UV Detection / [row 10], UV Detection
smiles,measurement,setting,value
CCCCC[C@@H]1OC(=O)[C@@H](C)N(C)C(=O)[C@H](CCCCC)OC(=O)[C@@H](C)N(C)C(=O)[C@H](CCCCC)OC(=O)[C@@H](C)N(C)C(=O)[C@H](CCCCC)OC(=O)[C@@H](C)N(C)C(=O)[C@H](CCCCC)OC(=O)[C@@H](C)N(C)C1=O [Compound C1.5],Acceptor Concentration,PAMPA [1]; [8],67.5 µM
same,Acceptor Concentration,PAMPA [1]; [9],63.9 µM
same,Acceptor Concentration,PAMPA [1]; [10],64.8 µM
same,Acceptor Concentration,PAMPA [1]; [11],62.3 µM
same,Acceptor Concentration,PAMPA [1]; [12],65.1 µM
same,Acceptor Concentration,PAMPA [1]; [13],65 µM
same,Acceptor Concentration,PAMPA [1]; [14],68.5 µM
same,Acceptor Concentration,PAMPA [1]; [15],67.7 µM
same,Acceptor Concentration,PAMPA [1]; [16],61.3 µM
same,Acceptor Concentration,PAMPA [1]; [17],66.1 µM
same,Acceptor Concentration,PAMPA [1]; [18],66.6 µM
same,Acceptor Concentration,PAMPA [1]; [19],60.4 µM
same,Acceptor Concentration,PAMPA [1]; [20],56.7 µM
same,Acceptor Concentration,PAMPA [1]; [21],61.9 µM
same,Acceptor Concentration,PAMPA [1]; [22],71.3 µM
same,Acceptor Concentration,PAMPA [1]; [23],64.8 µM
same,Acceptor Concentration,PAMPA [1]; [24],71.7 µM
same,Acceptor Concentration,PAMPA [1]; [25],73.6 µM
same,Acceptor Concentration,PAMPA [1]; [26],71.6 µM
same,% recovery,"PAMPA [2]; Well 2 / %R, Well 2",86% and 90%
same,% recovery,"PAMPA [2]; Well 3 / %R, Well 3",93% and 88%
same,% recovery,"PAMPA [2]; Well 5 / %R, Well 5",88% and 87%
same,donor concentration after incubation,PAMPA [3]; Well 1 / [donor],379 µM and 372 µM
same,donor concentration after incubation,PAMPA [3]; Well 2 / [donor],370 µM and 384 µM
same,donor concentration after incubation,PAMPA [3]; Well 3 / [donor],400 µM and 367 µM
same,donor concentration after incubation,PAMPA [3]; Well 4 / [donor],389 µM and 372 µM
same,donor concentration after incubation,PAMPA [3]; Well 5 / [donor],376 µM and 362 µM
same,acceptor concentration after incubation,PAMPA [4]; Well 5 / [acc],61.8 µM
same,Papp,PAMPA [5]; [27],2.93 ×10⁻⁶ cm/s
same,Papp,PAMPA [5]; [28],2.62 ×10⁻⁶ cm/s
same,Papp,PAMPA [5]; [29],2.78 ×10⁻⁶ cm/s
same,Papp,PAMPA [5]; [30],3.09 ×10⁻⁶ cm/s
same,Papp,PAMPA [5]; [31],2.8 ×10⁻⁶ cm/s
same,Papp,PAMPA [5]; [32],3.15 ×10⁻⁶ cm/s
same,Papp,PAMPA [5]; [33],2.83 ×10⁻⁶ cm/s
same,Papp,PAMPA [5]; [34],2.67 ×10⁻⁶ cm/s
same,Papp,PAMPA [5]; [35],3.08 ×10⁻⁶ cm/s
same,Papp,PAMPA [5]; [36],3.3 ×10⁻⁶ cm/s
same,Papp,PAMPA [5]; [37],3.13 ×10⁻⁶ cm/s
same,Papp,PAMPA [5]; [38],3.08 ×10⁻⁶ cm/s
same,Papp,PAMPA [5]; [39],2.85 ×10⁻⁶ cm/s
same,Papp,"PAMPA [5]; Papp (x 10^-6 cm/s) – UV Detection / [row 5], UV Detection",3.14 ×10⁻⁶ cm/s
same,Papp,PAMPA [5]; [40],3.54 ×10⁻⁶ cm/s
same,Papp,PAMPA [5]; [41],3.19 ×10⁻⁶ cm/s
same,Papp,PAMPA [5]; [42],3.6 ×10⁻⁶ cm/s
same,Papp,PAMPA [5]; [43],3.64 ×10⁻⁶ cm/s
same,Papp,PAMPA [5]; [44],3.64 ×10⁻⁶ cm/s
same,%T,"PAMPA [6]; Well 1 / %T, Well 1",0.44% and 0.46%
same,%T,"PAMPA [6]; Well 2 / %T, Well 2",0.42% and 0.43%
same,%T,"PAMPA [6]; Well 3 / %T, Well 3",0.42% and 0.47%
same,%T,"PAMPA [6]; Well 4 / %T, Well 4",0.39% and 0.47%
same,%T,"PAMPA [6]; Well 5 / %T, Well 5",0.42% and 0.47%
CCCCC[C@@H]1OC(=O)[C@@H](C)N(C)C(=O)[C@H](CCCCC)OC(=O)[C@@H](C)N(C)C(=O)[C@H](CCCCC)OC(=O)[C@@H](C)N(C)C(=O)[C@H](CCCCC)OC(=O)[C@@H](C)N(C)C(=O)[C@H](CCCCC)OC(=O)[C@@H](C)N(C)C(=O)[C@H](CCCCC)OC(=O)[C@@H](C)N(C)C1=O [Compound C1.6],Acceptor Concentration,PAMPA [1]; [8],27.2 µM
same,Acceptor Concentration,PAMPA [1]; [9],30 µM
same,Acceptor Concentration,PAMPA [1]; [10],25.6 µM
same,Acceptor Concentration,PAMPA [1]; [11],29.3 µM
same,Acceptor Concentration,PAMPA [1]; [12],27.1 µM
same,Acceptor Concentration,PAMPA [1]; [13],45.6 µM
same,Acceptor Concentration,PAMPA [1]; [14],39.3 µM
same,Acceptor Concentration,PAMPA [1]; [15],42.2 µM
same,Acceptor Concentration,PAMPA [1]; [16],25.8 µM
same,Acceptor Concentration,PAMPA [1]; [17],46.7 µM
same,Acceptor Concentration,PAMPA [1]; [18],38.6 µM
same,Acceptor Concentration,PAMPA [1]; [19],37.6 µM
same,Acceptor Concentration,PAMPA [1]; Acceptor Concentration (uM) – UV Detection / [row 3],33.9 µM
same,Acceptor Concentration,PAMPA [1]; [20],31.6 µM
same,Acceptor Concentration,PAMPA [1]; [21],37 µM
same,Acceptor Concentration,PAMPA [1]; [22],51.1 µM
same,Acceptor Concentration,PAMPA [1]; [23],41.4 µM
same,Acceptor Concentration,PAMPA [1]; [24],41.9 µM
same,Acceptor Concentration,PAMPA [1]; [25],49 µM
same,Acceptor Concentration,PAMPA [1]; [26],37.4 µM
same,% recovery,"PAMPA [2]; Well 1 / %R, Well 1",89% and 86%
same,% recovery,"PAMPA [2]; Well 2 / %R, Well 2",88% and 97%
same,% recovery,"PAMPA [2]; Well 3 / %R, Well 3",80% and 98%
same,% recovery,"PAMPA [2]; Well 4 / %R, Well 4",82% and 97%
same,% recovery,"PAMPA [2]; Well 5 / %R, Well 5",89% and 91%
same,donor concentration after incubation,PAMPA [3]; Well 1 / [donor],407 µM and 377 µM
same,donor concentration after incubation,PAMPA [3]; Well 2 / [donor],404 µM and 445 µM
same,donor concentration after incubation,PAMPA [3]; Well 3 / [donor],368 µM and 446 µM
same,donor concentration after incubation,PAMPA [3]; Well 4 / [donor],379 µM and 438 µM
same,donor concentration after incubation,PAMPA [3]; Well 5 / [donor],406 µM and 417 µM
same,acceptor concentration after incubation,PAMPA [4]; Well 1 / [acc],38.6 µM and 51.1 µM
same,acceptor concentration after incubation,PAMPA [4]; Well 2 / [acc],37.6 µM and 41.4 µM
same,acceptor concentration after incubation,PAMPA [4]; Well 3 / [acc],41.9 µM
same,acceptor concentration after incubation,PAMPA [4]; Well 4 / [acc],31.6 µM and 49.1 µM
same,acceptor concentration after incubation,PAMPA [4]; Well 5 / [acc],37.4 µM
same,Papp,PAMPA [5]; [27],1.94 ×10⁻⁶ cm/s
same,Papp,PAMPA [5]; [28],1.99 ×10⁻⁶ cm/s
same,Papp,PAMPA [5]; [29],1.87 ×10⁻⁶ cm/s
same,Papp,PAMPA [5]; [30],1.89 ×10⁻⁶ cm/s
same,Papp,PAMPA [5]; [31],1.93 ×10⁻⁶ cm/s
same,Papp,PAMPA [5]; [32],1.88 ×10⁻⁶ cm/s
same,Papp,PAMPA [5]; [33],1.91 ×10⁻⁶ cm/s
same,Papp,PAMPA [5]; [34],1.8 ×10⁻⁶ cm/s
same,Papp,PAMPA [5]; [35],1.92 ×10⁻⁶ cm/s
same,Papp,PAMPA [5]; [36],1.95 ×10⁻⁶ cm/s
same,Papp,PAMPA [5]; [37],1.93 ×10⁻⁶ cm/s
same,Papp,PAMPA [5]; [38],1.95 ×10⁻⁶ cm/s
same,Papp,PAMPA [5]; [39],1.81 ×10⁻⁶ cm/s
same,Papp,PAMPA [5]; [40],2.59 ×10⁻⁶ cm/s
same,Papp,PAMPA [5]; [41],1.89 ×10⁻⁶ cm/s
same,Papp,PAMPA [5]; [42],1.91 ×10⁻⁶ cm/s
same,Papp,PAMPA [5]; [43],2.19 ×10⁻⁶ cm/s
same,Papp,PAMPA [5]; [44],1.87 ×10⁻⁶ cm/s
same,Diffusion (%),"[7]; PAMPA percent diffusion, C0 500 uM",6.78% and 7% and 6.8 ± 1.7%
same,Recovery (%),"[7]; PAMPA, (acceptor + donor)/total analyte, C0 500 uM",90%
same,Papp at 500 uM,"[7]; PAMPA, Ave, ELSD detection, C0 500 uM",1.9 ×10⁻⁶ cm/s
same,Papp at 500 uM,"[7]; PAMPA, ratio-based method, mean ± SD, C0 500 uM, UV detection",2 ± 0.23 ×10⁻⁶ cm/s
same,recovery at 500 uM,"[7]; PAMPA, Recovery (%), PAMPA, (acceptor + donor)/total analyte, C0 500 uM",89.7%
same,"Acceptor Concentration, Ave","[7]; PAMPA, ELSD detection, C0 500 uM",33.9 µM
same,"Acceptor Concentration, Ave","[7]; PAMPA, UV detection, C0 500 uM",39.95 µM
same,Δ % diffusion,[7]; increase: difference between percent diffusion of macrocycle vs linear counterpart,↑2%
same,%T,"PAMPA [6]; Well 1 / %T, Well 1",0.63% and 0.58%
same,%T,"PAMPA [6]; Well 2 / %T, Well 2",0.65% and 0.63%
same,%T,"PAMPA [6]; Well 3 / %T, Well 3",0.63% and 0.59%
same,%T,"PAMPA [6]; Well 4 / %T, Well 4",0.66% and 0.6%
same,%T,"PAMPA [6]; Well 5 / %T, Well 5",0.62% and 0.63%
